Assays:
HLA-A*02:01 = HLA-A*02:01 (Homo sapiens, UniProt P04439, D140Y/D185E/D98H/E176V/E277Q/G131W/G231S/I119V/I121R/I166T/I218V/L300P/L318F/N151K/N90K/P208A/P217A/Q86G/Q94H/R138H/R169H/T345S); assay: MHC binding assay (UV-ligand exchange, β2m ELISA); conditions: MHC class I binding score; binding to HLA-A*02:01 ranged by peptide exchange yield (UV-ligand exchange, β2m ELISA)
Method in brief: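 Peptide–MHC complexes formed by UV-ligand exchange, cleaving a UV-sensitive peptide so the test peptide can bind. Exchange yield measured by ELISA: complexes captured on streptavidin-coated wells, diluted 100-fold, detected with HRP anti-β2m (1 h, 37 °C) and TMB at 450 nm, against refolded HLA-A*02:01/MLA-001 standards (15-500 ng/ml).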

CD8+ T cells = assay: In vitro immunogenicity: T-cell priming with artificial APCs loaded with peptide/MHC and anti-CD28, pMHC multimer readout; format: cell-based, human; conditions: for Wells positive [%]: Table 10B, HLA-A*02 restricted peptides, percentage of positive wells among evaluable; for Donors (in vitro immunogenicity) / Wells (in vitro immunogenicity): Table 10A, HLA class I peptides
Text: In order to obtain information regarding the immunogenicity of the TUMAPs of the present invention, the inventors performed investigations using an in vitro T-cell priming assay based on repeated stimulations of CD8+ T cells with artificial antigen presenting cells (aAPCs) loaded with peptide/MHC complexes and anti-CD28 antibody.
In order to perform in vitro stimulations by artificial antigen presenting cells loaded with peptide-MHC complex (pMHC) and anti-CD28 antibody, the inventors first isolated CD8+ T cells from fresh HLA-A*02 leukapheresis products via positive selection using CD8 microbeads (Miltenyi Biotec, Bergisch-Gladbach, Germany) of healthy donors obtained from the University clinics Mannheim, Germany, after informed consent.
PBMCs and isolated CD8+ lymphocytes were incubated in T-cell medium (TCM) until use consisting of RPMI-Glutamax (Invitrogen, Karlsruhe, Germany) supplemented with 10% heat inactivated human AB serum (PAN-Biotech, Aidenbach, Germany), 100 U/ml Penicillin/100 μg/ml Streptomycin (Cambrex, Cologne, Germany), 1 mM sodium pyruvate (CC Pro, Oberdorla, Germany), 20 μg/ml Gentamycin (Cambrex). 2.5 ng/ml IL-7 (PromoCell, Heidelberg, Germany) and 10 U/ml IL-2 (Novartis Pharma, Nürnberg, Germany) were also added to the TCM at this step.
Generation of pMHC/anti-CD28 coated beads, T-cell stimulations and readout was performed in a highly defined in vitro system using four different pMHC molecules per stimulation condition and 8 different pMHC molecules per readout condition.
The purified co-stimulatory mouse IgG2a anti human CD28 Ab 9.3 (Jung et al., 1987) was chemically biotinylated using Sulfo-N-hydroxysuccinimidobiotin as recommended by the manufacturer (Perbio, Bonn, Germany). Beads used were 5.6 μm diameter streptavidin coated polystyrene particles (Bangs Laboratories, Illinois, USA).
800.000 beads/200 μl were coated in 96-well plates in the presence of 4×12.5 ng different biotin-pMHC, washed and 600 ng biotin anti-CD28 were added subsequently in a volume of 200 μl. Stimulations were initiated in 96-well plates by co-incubating 1×10^6 CD8+ T cells with 2×10^5 washed coated beads in 200 μl TCM supplemented with 5 ng/ml IL-12 (PromoCell) for 3 days at 37° C. Half of the medium was then exchanged by fresh TCM supplemented with 80 U/ml IL-2 and incubating was continued for 4 days at 37° C. This stimulation cycle was performed for a total of three times. For the pMHC multimer readout using 8 different pMHC molecules per condition, a two-dimensional combinatorial coding approach was used as previously described (Andersen et al., 2012) with minor modifications encompassing coupling to 5 different fluorochromes. Finally, multimeric analyses were performed by staining the cells with Live/dead near IR dye (Invitrogen, Karlsruhe, Germany), CD8-FITC antibody clone SK1 (BD, Heidelberg, Germany) and fluorescent pMHC multimers. For analysis, a BD LSRII SORP cytometer equipped with appropriate lasers and filters was used. Peptide specific cells were calculated as percentage of total CD8+ cells. Evaluation of multimeric analysis was done using the FlowJo software (Tree Star, Oregon, USA). In vitro priming of specific multimer+CD8+ lymphocytes was detected by comparing to negative control stimulations.

Substance	Peptide exchange (HLA-A*02:01)	Wells positive [%] (CD8+ T cells)	Donors (in vitro immunogenicity) (CD8+ T cells)	Wells (in vitro immunogenicity) (CD8+ T cells)
4 (KTWDQVPFSV; listed as Homo sapiens) [compound 4]	++++ (>75% = ++++)	+ (<20% = +)		
17 (GVVHGVATV; listed as Homo sapiens) [compound 17]	++++ (>75% = ++++)	+ (<20% = +)		
211 (FLPFLTTEV; listed as Homo sapiens) [compound 211]	++++ (>75% = ++++)	+ (<20% = +)		
14 (VLYEMLYGL; listed as Homo sapiens) [compound 14]	++++ (>75% = ++++)	+++ (50%-69% = +++)		
189 (KALQFLEEV; listed as Homo sapiens) [compound 189]	++++ (>75% = ++++)	+ (<20% = +)		
21 (FMYNFQLVTL; listed as Homo sapiens) [compound 21]	++ (>20% = ++)	+ (<20% = +)		
9 (SLAGLVLYV; listed as Homo sapiens) [compound 9]	++++ (>75% = ++++)	++ (20%-49% = ++)		
16 (GLFPSNFVTA; listed as Homo sapiens) [compound 16]	++++ (>75% = ++++)	+ (<20% = +)		
18 (SLADVVDTL; listed as Homo sapiens) [compound 18]	++++ (>75% = ++++)	+ (<20% = +)		
8 (SIIPYLLEA; listed as Homo sapiens) [compound 8]	++++ (>75% = ++++)	++ (20%-49% = ++)		
33 (SLYSYFQKV; listed as Homo sapiens) [compound 33]	++++ (>75% = ++++)	++++ (≥70% = ++++)		
328 (SLSQELVGV; listed as Homo sapiens) [compound 328]			++ (20%-49% = ++)	+ (<20% = +)
192 (KLFTQIFGV; listed as Homo sapiens) [compound 192]	++++ (>75% = ++++)	+ (<20% = +)		
191 (YLDKMNNNI; listed as Homo sapiens) [compound 191]	++++ (>75% = ++++)	+ (<20% = +)		
247 (ALLNAILHSA; listed as Homo sapiens) [compound 247]			++++ (≥70% = ++++)	+ (<20% = +)
12 (RLDDKTTNV; listed as Homo sapiens) [compound 12]	+++ (>50 = +++)	++ (20%-49% = ++)		
116 (LMDETMKEL; listed as Homo sapiens) [compound 116]	++++ (>75% = ++++)	+ (<20% = +)		
287 (KISDFGLATV; listed as Homo sapiens) [compound 287]			++++ (≥70% = ++++)	++ (20%-49% = ++)
31 (FLPRKFPSL; listed as Homo sapiens) [compound 31]	++++ (>75% = ++++)	++ (20%-49% = ++)		
321 (YLPTFFLTV; listed as Homo sapiens) [compound 321]			+++ (50%-69% = +++)	++ (20%-49% = ++)
133 (ALDPAYTTL; listed as Homo sapiens) [compound 133]	+++ (>50 = +++)	+ (<20% = +)		
10 (KMTQYITEL; listed as Homo sapiens) [compound 10]	++++ (>75% = ++++)	++ (20%-49% = ++)		

Substance	Peptide exchange (HLA-A*02:01)	Wells positive [%] (CD8+ T cells)	Donors (in vitro immunogenicity) (CD8+ T cells)	Wells (in vitro immunogenicity) (CD8+ T cells)
320 (KIIGIMEEV; listed as Homo sapiens) [compound 320]			++++ (≥70% = ++++)	++++ (≥70% = ++++)
34 (YLINFEIRSL; listed as Homo sapiens) [compound 34]	++++ (>75% = ++++)	+ (<20% = +)		
15 (VLYDPVVGC; listed as Homo sapiens) [compound 15]	++++ (>75% = ++++)	+ (<20% = +)		
155 (GLAGFFASV; listed as Homo sapiens) [compound 155]	++++ (>75% = ++++)	++++ (≥70% = ++++)		
336 (YVDPVITSI; listed as Homo sapiens) [compound 336]			++++ (≥70% = ++++)	++ (20%-49% = ++)
3 (VLFKDPVSV; listed as Homo sapiens) [compound 3]	++++ (>75% = ++++)	+ (<20% = +)		
292 (ALGDKFLLRV; listed as Homo sapiens) [compound 292]			++++ (≥70% = ++++)	+ (<20% = +)
326 (ALSGTLSGV; listed as Homo sapiens) [compound 326]			++++ (≥70% = ++++)	+ (<20% = +)
11 (TLIELLLPKL; listed as Homo sapiens) [compound 11]	++++ (>75% = ++++)	+ (<20% = +)		
241 (RLYTKLLNEA; listed as Homo sapiens) [compound 241]			++++ (≥70% = ++++)	+++ (50%-69% = +++)
277 (KTASINQNV; listed as Homo sapiens) [compound 277]			++++ (≥70% = ++++)	+++ (50%-69% = +++)
298 (KLQEEIPVL; listed as Homo sapiens) [compound 298]			++++ (≥70% = ++++)	+ (<20% = +)
332 (AVVEFLTSV; listed as Homo sapiens) [compound 332]			++ (20%-49% = ++)	+ (<20% = +)
323 (VVDKTLLLV; listed as Homo sapiens) [compound 323]			++++ (≥70% = ++++)	+++ (50%-69% = +++)
252 (YLLDMPLWYL; listed as Homo sapiens) [compound 252]			++++ (≥70% = ++++)	+ (<20% = +)
310 (ALASVIKEL; listed as Homo sapiens) [compound 310]			++ (20%-49% = ++)	+ (<20% = +)
238 (KLLDKPEQFL; listed as Homo sapiens) [compound 238]			++ (20%-49% = ++)	+ (<20% = +)
271 (SLVQRVETI; listed as Homo sapiens) [compound 271]			++ (20%-49% = ++)	+ (<20% = +)
315 (KLSWDLIYL; listed as Homo sapiens) [compound 315]			++++ (≥70% = ++++)	++ (20%-49% = ++)
248 (GLFAGLGGAGA; listed as Homo sapiens) [compound 248]			++++ (≥70% = ++++)	+ (<20% = +)
257 (VLLNEILEQV; listed as Homo sapiens) [compound 257]			++++ (≥70% = ++++)	++ (20%-49% = ++)

Source: US10640547B2, “Immunotherapy against melanoma and other cancers” (IMMATICS BIOTECHNOLOGIES GMBH, priority 2016, dated 2020)
